The values that follow come from US20090131465A1, “Synthesis and crystalline forms of melanocortin-4 receptor agonist” (priority 2007, published 2009).

Structures are written as SMILES.

Data set [1] can be described thus: chemical and physical stability of the crystalline form (statement only, no method). The following applies: qualitative statement, no conditions given. Format: physicochemical.
The nature of data set [2]: aqueous solubility of the crystalline form (statement only, no method). Type of data set: physicochemical. The following applies: qualitative statement, no conditions given.

For the molecule `CC(=O)NC(C)(C)[C@@H]1CC2(CCN(C(=O)[C@@H]3CN(C(C)(C)C)C[C@H]3c3ccc(F)cc3F)CC2)c2cc(Cl)c(C)cc21.Cl` [N-[1-((3R)-1′-1′-{[(3S,4R)-1-tert-butyl-4-(2,4-difluorophenyl)pyrrolidine-3-yl]carbonyl}-6-chloro-5-methyl-2,3-dihydrospiro[indene-1,4′-piperidine]-3-yl)-1-methylethyl]acetamide], the “chemical and physical stability” value in data set [1] was “good”. In addition, in data set [2], the aqueous solubility entry was “good”.
